Measured values from patent publication US12655116B2, “Substituted isophthalic acid diamides” (Bayer Aktiengesellschaft, priority 2020, dated 2026).

Assays:
AVEFA = assay: Pre-emergence herbicidal action against AVEFA; type: in vivo, Avena fatua; details: Avena fatua, 504 h, pre-emergence
Method in brief: (§1)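 Pre-emergence soil-surface spray of formulated compound (WP or EC; 600 to 800 l/ha; 0.2% wetting agent) over seeds sown in sandy loam. After 3 weeks under greenhouse conditions, damage is estimated visually in percent against untreated plants.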

SETVI [1] = assay: Pre-emergence herbicidal action against SETVI; type: in vivo, Setaria viridis; details: Setaria viridis, 504 h; for pest or weed control at 80 g/ha: dosage 80 g/ha
Method in brief: as §1

ABUTH [2] = assay: Pre-emergence herbicidal action against ABUTH; type: in vivo, Abutilon theophrasti; details: Abutilon theophrasti, 504 h; for pest or weed control at 80 g/ha: scored visually after 3 weeks vs untreated controls (100% = plants have died, 0% = like control plants)
Method in brief: as §1

ECHCG [3] = assay: Post-emergence herbicidal action against ECHCG; type: in vivo, Echinochloa crus-galli; details: Echinochloa crus-galli, 504 h, dosage 20 g/ha
Method in brief: (§2)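 Greenhouse plants in sandy loam were sprayed at the one-leaf stage, 2 to 3 weeks after sowing, with WP or EC formulations as aqueous suspension or emulsion (600 to 800 l/ha water, 0.2% wetting agent). Visual damage was scored about 3 weeks later versus untreated controls, 0% = like control, 100% = dead.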

VIOTR [4] = assay: Pre-emergence herbicidal action against VIOTR; type: in vivo, Viola tricolor; details: Viola tricolor, 504 h; for pest or weed control at 80 g/ha: dosage 80 g/ha
Method in brief: as §1

PHBPU [5] = assay: Pre-emergence herbicidal action against PHBPU; type: in vivo, Pharbitis purpurea; details: Ipomoea purpurea, 504 h, dosage 80 g/ha
Method in brief: as §1

VIOTR [6] = assay: Post-emergence herbicidal action against VIOTR; type: in vivo, Viola tricolor; details: Viola tricolor, 504 h
Method in brief: as §2

AMARE [7] = assay: Post-emergence herbicidal action against AMARE; type: in vivo, Amaranthus retroflexus; details: Amaranthus retroflexus, 504 h, 20 g/ha, visual assessment about 3 weeks after treatment, 100% = plants have died, 0% = like control plants
Method in brief: as §2

ALOMY [8] = assay: Pre-emergence herbicidal action against ALOMY; type: in vivo, Alopecurus myosuroides; details: Alopecurus myosuroides, 504 h, pre-emergence; for pest or weed control at 80 g/ha: scored visually after 3 weeks vs untreated controls (100% = plants have died, 0% = like control plants); for pest or weed control at 20 g/ha: scored visually after 3 weeks, 100% = plants have died, 0% = like control plants
Method in brief: as §1

PHBPU [9] = assay: Post-emergence herbicidal action against PHBPU; type: in vivo, Pharbitis purpurea; details: Ipomoea purpurea, 504 h, dosage 20 g/ha
Method in brief: as §2

DIGSA [10] = assay: Pre-emergence herbicidal action against DIGSA; type: in vivo, Digitaria sanguinalis; details: Digitaria sanguinalis, 504 h; for pest or weed control at 20 g/ha: dosage 20 g/ha; for pest or weed control at 80 g/ha: dosage 80 g/ha
Method in brief: as §1

MATIN [11] = assay: Pre-emergence herbicidal action against MATIN; type: in vivo, Matricaria inodora; details: Tripleurospermum inodorum, 504 h; for pest or weed control at 20 g/ha: dosage 20 g/ha; for pest or weed control at 80 g/ha: dosage 80 g/ha
Method in brief: as §1

AMARE [12] = assay: Pre-emergence herbicidal action against AMARE; type: in vivo, Amaranthus retroflexus; details: Amaranthus retroflexus, 504 h, scored visually after 3 weeks vs untreated controls, 100% = plants have died, 0% = like control plants
Method in brief: as §1

VERPE [13] = assay: Pre-emergence herbicidal action against VERPE; type: in vivo, Veronica persica; details: Veronica persica, 504 h, dosage 80 g/ha
Method in brief: as §1

ECHCG [14] = assay: Pre-emergence herbicidal action against ECHCG; type: in vivo, Echinochloa crus-galli; details: Echinochloa crus-galli, 504 h
Method in brief: as §1

LOLRI = assay: Pre-emergence herbicidal action against LOLRI; type: in vivo, Lolium rigidum; details: Lolium rigidum, 504 h, 80 g/ha
Method in brief: as §1

SETVI [15] = assay: Post-emergence herbicidal action against SETVI; type: in vivo, Setaria viridis; details: Setaria viridis, 504 h; for pest or weed control at 5 g/ha: dosage 5 g/ha; for pest or weed control at 20 g/ha: dosage 20 g/ha
Method in brief: as §2

VERPE [16] = assay: Post-emergence herbicidal action against VERPE; type: in vivo, Veronica persica; details: Veronica persica, 504 h, 20 g/ha
Method in brief: as §2

MATIN [17] = assay: Post-emergence herbicidal action against MATIN; type: in vivo, Matricaria inodora; details: Tripleurospermum inodorum, 504 h; for pest or weed control at 20 g/ha: dosage 20 g/ha
Method in brief: as §2

DIGSA [18] = assay: Post-emergence herbicidal action against DIGSA; type: in vivo, Digitaria sanguinalis; details: Digitaria sanguinalis, 504 h
Method in brief: as §2

ABUTH [19] = assay: Post-emergence herbicidal action against ABUTH; type: in vivo, Abutilon theophrasti; details: Abutilon theophrasti, 504 h, visual assessment about 3 weeks after treatment vs untreated controls; for pest or weed control at 5 g/ha: dosage 5 g/ha; for pest or weed control at 20 g/ha: dosage 20 g/ha
Method in brief: as §2

ALOMY [20] = assay: Post-emergence herbicidal action against ALOMY; type: in vivo, Alopecurus myosuroides; details: Alopecurus myosuroides, 504 h, visual assessment about 3 weeks after treatment vs untreated controls; for pest or weed control at 20 g/ha: dosage 20 g/ha
Method in brief: as §2

CNC(=O)c1c(Br)ccc(C(=O)Nc2nnnn2C)c1Cl [Example 1-177]
pest or weed control at 80 g/ha (AVEFA): 100% | pest or weed control at 20 g/ha (AVEFA; 20 g/ha, scored visually after 3 weeks, 100% = plants have died, 0% = like control plants): 80% | pest or weed control at 80 g/ha (SETVI [1]): 100% | pest or weed control at 80 g/ha (ABUTH [2]): 100% | pest or weed control at 20 g/ha (ECHCG [3]): 90% | pest or weed control at 80 g/ha (VIOTR [4]): 100% | pest or weed control at 80 g/ha (PHBPU [5]): 80% | pest or weed control at 5 g/ha (VIOTR [6]): 90% | pest or weed control at 20 g/ha (VIOTR [6]): 90% | pest or weed control at 20 g/ha (AMARE [7]): 100% | pest or weed control at 80 g/ha (ALOMY [8]): 100% | pest or weed control at 20 g/ha (ALOMY [8]): 80% | pest or weed control at 20 g/ha (PHBPU [9]): 80% | pest or weed control at 20 g/ha (DIGSA [10]): 100% | pest or weed control at 80 g/ha (DIGSA [10]): 100% | pest or weed control at 20 g/ha (MATIN [11]): 90% | pest or weed control at 80 g/ha (MATIN [11]): 100% | pest or weed control at 20 g/ha (AMARE [12]): 100% | pest or weed control at 80 g/ha (AMARE [12]): 100% | pest or weed control at 80 g/ha (VERPE [13]): 100% | pest or weed control at 20 g/ha (ECHCG [14]; 20 g/ha): 80% | pest or weed control at 80 g/ha (ECHCG [14]): 100% | pest or weed control at 80 g/ha (LOLRI): 90% | pest or weed control at 5 g/ha (SETVI [15]): 90% | pest or weed control at 20 g/ha (SETVI [15]): 90% | pest or weed control at 20 g/ha (VERPE [16]): 80% | pest or weed control at 20 g/ha (MATIN [17]): 90% | pest or weed control at 5 g/ha (DIGSA [18]; 5 g/ha): 90% | pest or weed control at 20 g/ha (DIGSA [18]; 20 g/ha): 90% | pest or weed control at 5 g/ha (ABUTH [19]): 90% | pest or weed control at 20 g/ha (ABUTH [19]): 90% | pest or weed control at 20 g/ha (ALOMY [20]): 90%

CCn1nnnc1NC(=O)c1ccc(Br)c(C(=O)NC)c1Cl [Example 2-177]
pest or weed control at 80 g/ha (AVEFA): 90% | pest or weed control at 20 g/ha (SETVI [1]; dosage 20 g/ha): 100% | pest or weed control at 80 g/ha (SETVI [1]): 100% | pest or weed control at 80 g/ha (ABUTH [2]): 100% | pest or weed control at 20 g/ha (ABUTH [2]; dosage 20 g/ha, scored visually after 3 weeks vs untreated controls, 100% = plants have died, 0% = like control plants, read-out: Pre-emergence action against ABUTH (herbicidal activity in percent)): 90% | pest or weed control at 20 g/ha (VIOTR [4]; dosage 20 g/ha): 100% | pest or weed control at 80 g/ha (VIOTR [4]): 100% | pest or weed control at 80 g/ha (PHBPU [5]): 80% | pest or weed control at 5 g/ha (VIOTR [6]): 80% | pest or weed control at 20 g/ha (VIOTR [6]): 100% | pest or weed control at 20 g/ha (AMARE [7]): 100% | pest or weed control at 80 g/ha (ALOMY [8]): 100% | pest or weed control at 20 g/ha (ALOMY [8]): 90% | pest or weed control at 20 g/ha (DIGSA [10]): 100% | pest or weed control at 80 g/ha (DIGSA [10]): 100% | pest or weed control at 20 g/ha (MATIN [11]): 90% | pest or weed control at 80 g/ha (MATIN [11]): 100% | pest or weed control at 20 g/ha (AMARE [12]): 100% | pest or weed control at 80 g/ha (AMARE [12]): 100% | pest or weed control at 80 g/ha (VERPE [13]): 80% | pest or weed control at 80 g/ha (ECHCG [14]): 90% | pest or weed control at 80 g/ha (LOLRI): 90% | pest or weed control at 5 g/ha (SETVI [15]): 90% | pest or weed control at 20 g/ha (SETVI [15]): 90% | pest or weed control at 20 g/ha (VERPE [16]): 80% | pest or weed control at 5 g/ha (MATIN [17]; dosage 5 g/ha): 90% | pest or weed control at 20 g/ha (MATIN [17]): 90% | pest or weed control at 5 g/ha (ABUTH [19]): 80% | pest or weed control at 20 g/ha (ABUTH [19]): 90% | pest or weed control at 5 g/ha (ALOMY [20]; dosage 5 g/ha): 80% | pest or weed control at 20 g/ha (ALOMY [20]): 100%
